Key:
Androgen (Testosterone) = Androgen (Testosterone) (Homo sapiens, UniProt P10275); assay: radioligand binding assay; conditions: read-out: % inhibition at 10 μM
[1] = target: Transporter, Dopamine (DAT) (Homo sapiens, UniProt Q01959); assay: radioligand binding assay; conditions: read-out: % inhibition at 10 μM
Glucocorticoid = Glucocorticoid (Homo sapiens, UniProt P04150); assay: biochemical; conditions: read-out: % inhibition or stimulation (human)
[2] = target: Epidermal Growth Factor (EGF) (Homo sapiens, UniProt P00533); assay: biochemical; conditions: read-out: % inhibition or stimulation (human)
Histamine H2 = Histamine H2 (Homo sapiens, UniProt P25021); assay: radioligand binding assay; conditions: read-out: % inhibition or stimulation at 10 μM
Serotonin 5-HT2B = Serotonin 5-HT2B (Homo sapiens, UniProt P41595); assay: radioligand binding assay; conditions: read-out: % inhibition at 10 μM
[3] = target: Leukotriene, Cysteinyl CysLT1 (Homo sapiens, UniProt Q9Y271); assay: biochemical; conditions: read-out: % inhibition or stimulation (human)
Sequence of Leukotriene, Cysteinyl CysLT1 (Q9Y271 whole entry): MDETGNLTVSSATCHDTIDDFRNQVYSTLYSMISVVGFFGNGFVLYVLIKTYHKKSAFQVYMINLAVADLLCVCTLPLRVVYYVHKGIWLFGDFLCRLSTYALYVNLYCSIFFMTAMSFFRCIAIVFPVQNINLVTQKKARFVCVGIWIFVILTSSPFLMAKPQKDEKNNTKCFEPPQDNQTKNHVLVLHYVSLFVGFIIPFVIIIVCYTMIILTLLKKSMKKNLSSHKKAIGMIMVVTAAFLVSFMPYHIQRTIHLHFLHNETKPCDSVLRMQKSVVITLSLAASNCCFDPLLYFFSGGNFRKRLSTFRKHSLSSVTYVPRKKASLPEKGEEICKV

Histamine H1 = Histamine H1 (Homo sapiens, UniProt P35367); assay: biochemical; conditions: read-out: % inhibition or stimulation (human)
Dopamine D1 = Dopamine D1 (Homo sapiens, UniProt P21728); assay: biochemical; conditions: read-out: % inhibition or stimulation (human)
Muscarinic M2 = Muscarinic M2 (Homo sapiens, UniProt P08172); assay: biochemical; conditions: read-out: % inhibition or stimulation (human)
[4] = target: Serotonin (5-Hydroxytryptamine) 5-HT1A (Homo sapiens, UniProt P08908); assay: biochemical; conditions: read-out: % inhibition or stimulation (human)
Bradykinin B2 = Bradykinin B2 (Homo sapiens, UniProt P30411); assay: biochemical; conditions: read-out: % inhibition or stimulation (human)
Neuropeptide Y Y1 = Neuropeptide Y Y1 (Homo sapiens, UniProt P25929); assay: biochemical; conditions: read-out: % inhibition or stimulation (human)
Adenosine A1 = Adenosine A1 (Homo sapiens, UniProt P30542); assay: biochemical; conditions: read-out: % inhibition or stimulation (human)
Adrenergic β1 = Adrenergic β1 (Homo sapiens, UniProt P08588); assay: biochemical; conditions: read-out: % inhibition or stimulation (human)
Melatonin MT1 = Melatonin MT1 (Homo sapiens, UniProt P48039); assay: biochemical; conditions: read-out: % inhibition or stimulation (human)
[5] = target: Transporter, Serotonin (5- Hydroxytryptamine) (SERT) (Homo sapiens, UniProt P31645); assay: biochemical; conditions: read-out: % inhibition or stimulation (human)
Muscarinic M3 = Muscarinic M3 (Homo sapiens, UniProt P20309); assay: biochemical; conditions: read-out: % inhibition or stimulation (human)
Adenosine A3 = Adenosine A3 (Homo sapiens, UniProt P0DMS8); assay: biochemical; conditions: read-out: % inhibition or stimulation (human)
Sequence of Adenosine A3 (P0DMS8 whole entry): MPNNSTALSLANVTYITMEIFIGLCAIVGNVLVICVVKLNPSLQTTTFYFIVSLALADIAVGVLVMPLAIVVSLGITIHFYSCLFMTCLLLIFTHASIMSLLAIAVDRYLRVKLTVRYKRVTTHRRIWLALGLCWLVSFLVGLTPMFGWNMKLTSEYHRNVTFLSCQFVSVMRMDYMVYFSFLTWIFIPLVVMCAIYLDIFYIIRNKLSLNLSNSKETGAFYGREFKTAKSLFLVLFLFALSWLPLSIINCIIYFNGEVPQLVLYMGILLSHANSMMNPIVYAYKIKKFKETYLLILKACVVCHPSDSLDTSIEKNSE

Opiate κ (OP2, KOP) = Opiate κ (OP2, KOP) (Homo sapiens, UniProt P41145); assay: biochemical; conditions: read-out: % inhibition or stimulation (human)
Cannabinoid CB1 = Cannabinoid CB1 (Homo sapiens, UniProt P21554); assay: biochemical; conditions: read-out: % inhibition or stimulation (human)
Sequence of Cannabinoid CB1 (P21554 whole entry): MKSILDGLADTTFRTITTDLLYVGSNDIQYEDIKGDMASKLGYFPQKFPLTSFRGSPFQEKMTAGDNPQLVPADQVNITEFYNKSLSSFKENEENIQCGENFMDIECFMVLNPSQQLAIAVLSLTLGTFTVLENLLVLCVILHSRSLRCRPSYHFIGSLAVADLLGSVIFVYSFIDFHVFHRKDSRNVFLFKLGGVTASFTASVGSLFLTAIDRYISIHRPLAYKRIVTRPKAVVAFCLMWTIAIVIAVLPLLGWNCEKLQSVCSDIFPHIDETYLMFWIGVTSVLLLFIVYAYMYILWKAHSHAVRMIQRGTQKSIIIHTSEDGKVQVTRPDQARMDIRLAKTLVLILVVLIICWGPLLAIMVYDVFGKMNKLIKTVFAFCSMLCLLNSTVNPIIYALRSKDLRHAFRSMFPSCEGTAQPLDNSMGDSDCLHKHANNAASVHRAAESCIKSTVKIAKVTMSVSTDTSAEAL

Adrenergic α1B = Adrenergic α1B (Homo sapiens, UniProt P35368); assay: biochemical; conditions: read-out: % inhibition or stimulation (human)
Interleukin IL-1 R1 = Interleukin IL-1 R1 (Homo sapiens, UniProt P14778); assay: biochemical; conditions: read-out: % inhibition or stimulation (human)
Opiate µ (OP3, MOP) = Opiate µ (OP3, MOP) (Homo sapiens, UniProt P35372); assay: biochemical; conditions: read-out: % inhibition or stimulation (human)
Estrogen ERα = Estrogen ERα (Homo sapiens, UniProt P03372); assay: biochemical; conditions: read-out: % inhibition or stimulation (human)
Adrenergic α2A = Adrenergic α2A (Homo sapiens, UniProt P08913); assay: biochemical; conditions: read-out: % inhibition or stimulation (human)
Bradykinin B1 = Bradykinin B1 (Homo sapiens, UniProt P46663); assay: biochemical; conditions: read-out: % inhibition or stimulation (human)
Sequence of Bradykinin B1 (P46663 whole entry): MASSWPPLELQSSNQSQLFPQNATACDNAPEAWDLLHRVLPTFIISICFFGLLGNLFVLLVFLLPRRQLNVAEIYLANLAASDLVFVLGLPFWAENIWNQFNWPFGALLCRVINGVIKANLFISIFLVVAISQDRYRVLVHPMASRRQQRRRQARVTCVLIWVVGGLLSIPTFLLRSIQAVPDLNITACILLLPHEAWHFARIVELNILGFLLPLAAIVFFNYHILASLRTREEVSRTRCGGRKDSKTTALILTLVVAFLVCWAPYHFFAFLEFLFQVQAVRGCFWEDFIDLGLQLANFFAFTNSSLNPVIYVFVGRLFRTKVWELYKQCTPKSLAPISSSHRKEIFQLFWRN

Dopamine D4.4 = Dopamine D4.4 (Homo sapiens, UniProt P21917); assay: biochemical; conditions: read-out: % inhibition or stimulation (human)
Prostanoid EP4 = Prostanoid EP4 (Homo sapiens, UniProt P35408); assay: biochemical; conditions: read-out: % inhibition or stimulation (human)
Sequence of Prostanoid EP4 (P35408 whole entry): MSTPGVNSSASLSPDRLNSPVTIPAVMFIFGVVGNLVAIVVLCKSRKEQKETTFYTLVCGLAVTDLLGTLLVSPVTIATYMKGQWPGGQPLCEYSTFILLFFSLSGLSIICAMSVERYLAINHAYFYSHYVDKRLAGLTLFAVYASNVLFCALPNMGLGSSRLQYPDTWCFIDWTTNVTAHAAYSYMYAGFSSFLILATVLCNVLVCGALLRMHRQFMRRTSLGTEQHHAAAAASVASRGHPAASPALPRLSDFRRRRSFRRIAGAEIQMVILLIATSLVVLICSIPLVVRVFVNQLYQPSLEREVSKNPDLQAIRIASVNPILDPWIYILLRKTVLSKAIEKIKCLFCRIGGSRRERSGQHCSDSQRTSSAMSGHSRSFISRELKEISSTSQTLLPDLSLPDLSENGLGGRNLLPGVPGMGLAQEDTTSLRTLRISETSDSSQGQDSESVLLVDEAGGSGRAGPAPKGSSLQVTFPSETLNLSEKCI

Dopamine D3 = Dopamine D3 (Homo sapiens, UniProt P35462); assay: biochemical; conditions: read-out: % inhibition or stimulation (human)
Adrenergic α1D = Adrenergic α1D (Homo sapiens, UniProt P25100); assay: biochemical; conditions: read-out: % inhibition or stimulation (human)
Sequence of Adrenergic α1D (P25100 whole entry): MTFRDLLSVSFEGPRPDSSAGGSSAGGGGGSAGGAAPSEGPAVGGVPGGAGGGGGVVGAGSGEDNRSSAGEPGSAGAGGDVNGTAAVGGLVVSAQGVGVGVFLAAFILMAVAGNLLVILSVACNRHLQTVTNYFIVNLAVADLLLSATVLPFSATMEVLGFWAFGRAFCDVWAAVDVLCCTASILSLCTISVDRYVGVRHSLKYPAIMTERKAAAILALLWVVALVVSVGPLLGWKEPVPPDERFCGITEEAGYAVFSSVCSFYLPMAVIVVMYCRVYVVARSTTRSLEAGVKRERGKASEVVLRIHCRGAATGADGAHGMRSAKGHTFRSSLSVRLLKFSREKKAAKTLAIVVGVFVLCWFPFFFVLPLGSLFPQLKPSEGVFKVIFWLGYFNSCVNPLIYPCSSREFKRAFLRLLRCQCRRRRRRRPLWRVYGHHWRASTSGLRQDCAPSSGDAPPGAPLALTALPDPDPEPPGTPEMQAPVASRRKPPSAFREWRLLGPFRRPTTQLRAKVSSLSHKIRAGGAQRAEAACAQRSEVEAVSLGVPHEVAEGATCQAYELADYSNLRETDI

[6] = target: Nicotinic Acetylcholine α1, Bungarotoxin (Homo sapiens, UniProt P02708); assay: biochemical; conditions: read-out: % inhibition or stimulation (human)
Muscarinic M1 = Muscarinic M1 (Homo sapiens, UniProt P11229); assay: biochemical; conditions: read-out: % inhibition or stimulation (human)
Potassium Channel hERG = Potassium Channel hERG (Homo sapiens, UniProt Q12809); assay: in vitro
Sigma σ1 = Sigma σ1 (Homo sapiens, UniProt Q99720); assay: biochemical; conditions: read-out: % inhibition or stimulation (human)
[7] = target: Serotonin (5-Hydroxytryptamine) 5-HT3 (Homo sapiens, UniProt P46098); assay: biochemical; conditions: read-out: % inhibition or stimulation (human)
Endothelin ETB = Endothelin ETB (Homo sapiens, UniProt P24530); assay: biochemical; conditions: read-out: % inhibition or stimulation (human)
Neuropeptide Y Y2 = Neuropeptide Y Y2 (Homo sapiens, UniProt P49146); assay: biochemical; conditions: read-out: % inhibition or stimulation (human)
Adrenergic α1A = Adrenergic α1A (Homo sapiens, UniProt P35348); assay: biochemical; conditions: read-out: % inhibition or stimulation (human)
Histamine H3 = Histamine H3 (Homo sapiens, UniProt Q9Y5N1); assay: biochemical; conditions: read-out: % inhibition or stimulation (human)
Opiate δ1 (OP1, DOP) = Opiate δ1 (OP1, DOP) (Homo sapiens, UniProt P41143); assay: biochemical; conditions: read-out: % inhibition or stimulation (human)
Sequence of Opiate δ1 (OP1, DOP) (P41143 whole entry): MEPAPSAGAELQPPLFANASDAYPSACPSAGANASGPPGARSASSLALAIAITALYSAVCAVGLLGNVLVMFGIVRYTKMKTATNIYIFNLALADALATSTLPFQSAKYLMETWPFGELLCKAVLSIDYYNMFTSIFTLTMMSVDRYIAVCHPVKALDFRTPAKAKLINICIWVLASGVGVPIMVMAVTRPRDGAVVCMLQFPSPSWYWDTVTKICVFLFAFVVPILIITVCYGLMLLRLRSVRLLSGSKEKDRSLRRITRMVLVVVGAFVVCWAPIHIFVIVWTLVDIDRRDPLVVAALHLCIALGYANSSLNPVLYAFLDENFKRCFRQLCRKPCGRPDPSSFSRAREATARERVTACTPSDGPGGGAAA

Endothelin ETA = Endothelin ETA (Homo sapiens, UniProt P25101); assay: biochemical; conditions: read-out: % inhibition or stimulation (human)
[8] = target: Nicotinic Acetylcholine α3β4 (Homo sapiens, UniProt P30926+P32297); assay: biochemical; conditions: read-out: % inhibition or stimulation (human)
Sequence of Nicotinic Acetylcholine α3β4 (P30926 whole entry): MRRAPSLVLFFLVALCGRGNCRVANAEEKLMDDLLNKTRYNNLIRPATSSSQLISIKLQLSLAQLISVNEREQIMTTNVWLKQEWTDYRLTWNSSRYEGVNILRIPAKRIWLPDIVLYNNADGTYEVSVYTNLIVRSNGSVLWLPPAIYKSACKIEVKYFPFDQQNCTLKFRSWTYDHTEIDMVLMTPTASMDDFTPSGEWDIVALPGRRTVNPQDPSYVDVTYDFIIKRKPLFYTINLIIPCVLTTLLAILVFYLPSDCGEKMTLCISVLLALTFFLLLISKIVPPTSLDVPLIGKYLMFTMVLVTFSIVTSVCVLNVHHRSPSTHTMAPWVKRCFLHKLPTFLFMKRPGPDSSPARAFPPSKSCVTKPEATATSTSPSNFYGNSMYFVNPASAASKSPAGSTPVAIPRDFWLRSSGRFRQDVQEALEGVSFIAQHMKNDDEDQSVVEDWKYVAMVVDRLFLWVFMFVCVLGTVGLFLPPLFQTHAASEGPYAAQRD
Sequence of Nicotinic Acetylcholine α3β4 (P32297 whole entry): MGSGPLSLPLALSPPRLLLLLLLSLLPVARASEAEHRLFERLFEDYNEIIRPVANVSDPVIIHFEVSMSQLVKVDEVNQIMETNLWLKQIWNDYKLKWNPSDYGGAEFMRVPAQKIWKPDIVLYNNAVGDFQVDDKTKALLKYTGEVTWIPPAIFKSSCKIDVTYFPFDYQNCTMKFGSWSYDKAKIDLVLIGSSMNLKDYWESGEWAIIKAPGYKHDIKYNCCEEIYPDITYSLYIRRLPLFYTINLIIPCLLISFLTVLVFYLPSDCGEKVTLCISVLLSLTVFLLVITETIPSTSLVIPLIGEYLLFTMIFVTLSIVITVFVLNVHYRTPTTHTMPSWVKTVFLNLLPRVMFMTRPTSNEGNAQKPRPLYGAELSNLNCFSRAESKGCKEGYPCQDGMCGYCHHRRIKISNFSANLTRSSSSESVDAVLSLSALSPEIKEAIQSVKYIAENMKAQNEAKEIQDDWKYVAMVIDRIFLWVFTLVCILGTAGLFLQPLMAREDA

Dopamine D2S = Dopamine D2S (Homo sapiens, UniProt P14416); assay: biochemical; conditions: read-out: % inhibition or stimulation (human)
Tachykinin NK1 = Tachykinin NK1 (Homo sapiens, UniProt P25103); assay: biochemical; conditions: read-out: % inhibition or stimulation (human)
Sequence of Tachykinin NK1 (P25103 whole entry): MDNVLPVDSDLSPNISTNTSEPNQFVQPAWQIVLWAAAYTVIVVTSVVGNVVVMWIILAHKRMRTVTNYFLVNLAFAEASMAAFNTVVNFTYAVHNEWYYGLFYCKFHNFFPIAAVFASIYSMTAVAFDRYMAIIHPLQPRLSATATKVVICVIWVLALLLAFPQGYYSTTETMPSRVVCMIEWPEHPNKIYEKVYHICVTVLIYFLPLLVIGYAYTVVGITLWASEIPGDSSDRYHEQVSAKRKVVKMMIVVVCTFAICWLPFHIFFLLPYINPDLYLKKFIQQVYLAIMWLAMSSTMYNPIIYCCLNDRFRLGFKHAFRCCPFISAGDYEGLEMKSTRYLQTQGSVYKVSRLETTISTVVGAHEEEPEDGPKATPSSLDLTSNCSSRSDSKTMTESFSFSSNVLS

Adenosine A2A = Adenosine A2A (Homo sapiens, UniProt P29274); assay: biochemical; conditions: read-out: % inhibition or stimulation (human)
Sequence of Adenosine A2A (P29274 whole entry): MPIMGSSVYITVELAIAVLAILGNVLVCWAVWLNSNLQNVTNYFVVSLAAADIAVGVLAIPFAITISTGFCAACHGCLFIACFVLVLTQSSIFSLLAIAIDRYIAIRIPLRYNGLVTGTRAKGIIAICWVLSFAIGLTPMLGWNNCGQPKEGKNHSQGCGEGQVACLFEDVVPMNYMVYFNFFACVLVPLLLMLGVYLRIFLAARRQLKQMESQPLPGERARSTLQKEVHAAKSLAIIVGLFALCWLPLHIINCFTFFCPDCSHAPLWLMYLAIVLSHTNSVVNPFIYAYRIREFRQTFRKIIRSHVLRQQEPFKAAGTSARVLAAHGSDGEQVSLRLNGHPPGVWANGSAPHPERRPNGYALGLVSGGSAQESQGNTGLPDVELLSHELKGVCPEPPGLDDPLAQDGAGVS

Adrenergic β2 = Adrenergic β2 (Homo sapiens, UniProt P07550); assay: biochemical; conditions: read-out: % inhibition or stimulation (human)
[9] = target: Platelet Activating Factor (PAF) (Homo sapiens, UniProt P25105); assay: biochemical; conditions: read-out: % inhibition or stimulation (human)
[10] = target: Transporter, Norepinephrine (NET) (Homo sapiens, UniProt P23975); assay: radioligand binding assay; conditions: read-out: % inhibition at 10 μM

In the case of `CC(C)(C)c1ccc(C2=C(/C=N/O)CCC2)cc1` [8n, (E)-2-(4-(tert-butyl)phenyl)cyclopent-1-ene-1-carbaldehyde oxime], the inhibition at 10 µM (Androgen (Testosterone)) is reported as 79%, the inhibition at 10 µM [1] is reported as 86% and the inhibition at 10 µM (Glucocorticoid) is reported as -4%. The inhibition at 10 µM [2] was 2%, the inhibition at 10 µM (Histamine H2) was -54% and the inhibition at 10 µM (Serotonin 5-HT2B) was 63%. For the same molecule, the inhibition at 10 µM [3] was 25%, the inhibition at 10 µM (Histamine H1) was 42% and the inhibition at 10 µM (Dopamine D1) was 30%. For the same molecule, the inhibition at 10 µM (Muscarinic M2) was 7%, the inhibition at 10 µM [4] was -42% and the inhibition at 10 µM (Bradykinin B2) was -27%. The inhibition at 10 µM (Neuropeptide Y Y1) was -6%, the inhibition at 10 µM (Adenosine A1) was 33% and the inhibition at 10 µM (Adrenergic β1) was 4%. The inhibition at 10 µM (Melatonin MT1) was -3%, the inhibition at 10 µM [5] was 13% and the inhibition at 10 µM (Muscarinic M3) was 9%. It also gave an inhibition at 10 µM (Adenosine A3) of 45%, an inhibition at 10 µM (Opiate κ (OP2, KOP)) of 0% and an inhibition at 10 µM (Cannabinoid CB1) of 20%. The inhibition at 10 µM (Adrenergic α1B) was -15%, the inhibition at 10 µM (Interleukin IL-1 R1) was 19% and the inhibition at 10 µM (Opiate µ (OP3, MOP)) was 9%. For the same molecule, the inhibition at 10 µM (Estrogen ERα) was 6%, the inhibition at 10 µM (Adrenergic α2A) was 14% and the inhibition at 10 µM (Bradykinin B1) was -3%. For the same molecule, the inhibition at 10 µM (Dopamine D4.4) was -15%, the inhibition at 10 µM (Prostanoid EP4) was 34% and the inhibition at 10 µM (Dopamine D3) was 23%. For the same molecule, the inhibition at 10 µM (Adrenergic α1D) was 7%, the inhibition at 10 µM [6] was 0% and the inhibition at 10 µM (Muscarinic M1) was 0%. The inhibition at 10 µM (Potassium Channel hERG) was 25%, the inhibition at 10 µM (Sigma σ1) was 33% and the inhibition at 10 µM [7] was -5%. The inhibition at 10 µM (Endothelin ETB) was 0%, the inhibition at 10 µM (Neuropeptide Y Y2) was -11% and the inhibition at 10 µM (Adrenergic α1A) was 5%. For the same molecule, the inhibition at 10 µM (Histamine H3) was 0%, the inhibition at 10 µM (Opiate δ1 (OP1, DOP)) was 7% and the inhibition at 10 µM (Endothelin ETA) was 11%. The inhibition at 10 µM [8] was -1%, the inhibition at 10 µM (Dopamine D2S) was 12% and the inhibition at 10 µM (Tachykinin NK1) was -2%. The inhibition at 10 µM (Adenosine A2A) was 16%, the inhibition at 10 µM (Adrenergic β2) was 12% and the inhibition at 10 µM [9] was -14%. It also gave an inhibition at 10 µM [10] of 75%.
